According to PMC8622623, “Histamine H3 Receptor Ligands—KSK-59 and KSK-73—Reduce Body Weight Gain in a Rat Model of Excessive Eating” (Pharmaceuticals, 2021):

Legend:
mice fed high fat diet = test system: mice fed high fat diet; set-up: method as in PMID 15833055, PMID 15447739; settings: mice fed high fat diet ref 4, 16; cited from earlier work
in vitro = settings: PAMPA, pH 7.4
Experimental: The reference compounds, well-permeable caffeine and low-permeable norfloxacin were obtained from Sigma-Aldrich (St. Louis, MO, USA). Used for this study, pre-coated PAMPA Plate System Gentest™ was provided by Corning (Tewksbury, MA, USA). The system consisted of 96-well receiver filter plate pre-coated with structured layers of phospholipids and a donor microplate. The assay was performed as described previously. […] After 5 h of incubation at RT° the UPLC-MS spectrometry (Waters ACQUITY™ TQD system with the TQ Detector, Waters, Milford, MA, USA) method was used to estimate the quantity of compounds that penetrated from donor to acceptor wells. The permeability coefficients (Pe, cm/s) were calculated using the formulas provided by Corning.

laboratory animals = test system: laboratory animals; set-up: method as in PMID 33261900; settings: laboratory animals ref 12; cited from earlier work
rat = settings: i.p., no reference given; cited from earlier work
female Wistar rats = experiment: Visceral illness via kaolin intake (pica behavior); assay type: in vivo; settings: single i.p., 24 h; vs vehicle control
Experimental: The method was based on the works by Takeda et al. and Yamamoto et al. with minor modification. The experiment lasted for five days. In addition to free access to feed, animals had also free access to a white kaolin. For the first few days, the animals were accustomed to the presence of kaolin in their cages. […] Moreover, animals were weighed before the compounds administration and 24 h after.

## CN(C)[C@@H]1CCN(CCCOc2ccc(-c3ccc(C#N)cc3)cc2)C1 [Compound A-331440]
Mice fed high fat diet
  body weight: caused weight loss
  insulin tolerance: normalized insulin tolerance
  leptin levels: lowered leptin levels

## CCn1cc(C(=O)O)c(=O)c2cc(F)c(N3CCNCC3)cc21 [NFX, norfloxacin]
In vitro
  Papp at 5 h, 200 µM: 0.056 ± 0.01 ×10⁻⁶ cm/s

## Cn1c(=O)c2c(ncn2C)n(C)c1=O [CFN, caffeine]
In vitro
  Papp at 5 h, 200 µM: 12.2 ± 0.94 ×10⁻⁶ cm/s

## N#Cc1ccc(-c2ccc(OCCCN3CCN(c4ccncc4)CC3)cc2)cc1 [KSK-94]
Laboratory animals
  kcal intake: reduced kcal intake
  plasma triglyceride and total cholesterol levels: lowering plasma triglyceride and total cholesterol levels
  weight gain: strongly prevented weight gain

## O=S(=O)([O-])[O-].[Cu+2] [CuSO4, reference compound]
rat
  LD50: 18 mg/kg
Female Wistar rats
  calorie intake (pica model): reduced caloric intake
  water intake (pica model): drank less water
